Measured values as given in ChEMBL document CHEMBL1201862, “PubChem BioAssay data set” (2004).
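Each compound was tested at five concentrations against cells in 96-well plates for 48 hours. Abbreviation: GI50, concentration required for 50% inhibition of growth.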 Calls of active or inactive are those of the source. No stated cut-off is given here; in the data, active = GI50 up to about 1.1 µM and inactive = higher.

Experiments:
Assay in all cases: inhibition of tumour cell growth, NCI panel, 48 h
[1] = tested on: KM12
[2] = tested on: NCI-H522
[3] = tested on: UACC-62
[4] = tested on: M14
[5] = tested on: SK-MEL-28
[6] = tested on: HCC 2998
[7] = tested on: RPMI-8226
[8] = tested on: HCT-15
[9] = tested on: OVCAR-3
[10] = tested on: LOX IMVI
[11] = tested on: HCT-116
[12] = tested on: TK-10
[13] = tested on: SF-295
[14] = tested on: A498
[15] = tested on: MOLT-4
[16] = tested on: SK-MEL-2
[17] = tested on: OVCAR-4

Compound | GI50 [1] | GI50 [2] | GI50 [3] | GI50 [4] | GI50 [5] | GI50 [6] | GI50 [7] | GI50 [8] [µM] | GI50 [9] | GI50 [10] | GI50 [11] | GI50 [12] | GI50 [13] | GI50 [14] | GI50 [15] | GI50 [16] | GI50 [17]
CCc1cc2c(c3[nH]ccc13)[C@@H](C)C[C@H]2C | 19.1 µM (inactive) | 16.2 µM (inactive) | 16.9 µM (inactive) | 17.2 µM (inactive) | 16.1 µM (inactive) | 21.2 µM (inactive) | 20.1 µM (inactive) | 14.4 | 20 µM (inactive) | 12.7 µM (inactive) | 16 µM (inactive) | 19.5 µM (inactive) | 18.8 µM (inactive) | 15.6 µM (inactive) | 14.3 µM (inactive) | – | –
CCOC(=O)NC(=O)c1cn(CCCO)c(=O)[nH]c1=O | > 100 µM (inactive) | – | > 100 µM (inactive) | > 100 µM (inactive) | > 100 µM (inactive) | > 100 µM (inactive) | > 100 µM (inactive) | > 100 | > 100 µM (inactive) | > 100 µM (inactive) | > 100 µM (inactive) | > 100 µM (inactive) | > 100 µM (inactive) | > 100 µM (inactive) | > 100 µM (inactive) | > 100 µM (inactive) | > 100 µM (inactive)
[O-][n+]1c2cc(CN3CCOCC3)c(CN3CCOCC3)cc2[n+]([O-])c2c(O)cccc21 | 4.4 µM (inactive) | 1.88 µM (inactive) | 4.21 µM (inactive) | 3.64 µM (inactive) | 14 µM (inactive) | – | 3.32 µM (inactive) | 3.44 | 5.15 µM (inactive) | 4.02 µM (inactive) | 1.81 µM (inactive) | > 20.4 µM (inactive) | 0.478 µM (active) | 11 µM (inactive) | 0.627 µM (active) | 5.56 µM (inactive) | 4.29 µM (inactive)
CC1=C(C)C(=O)c2c(cc3ccc4ccccc4n23)C1=O | > 100 µM (inactive) | – | > 100 µM (inactive) | > 100 µM (inactive) | > 100 µM (inactive) | > 100 µM (inactive) | > 100 µM (inactive) | > 100 | > 100 µM (inactive) | > 100 µM (inactive) | – | > 100 µM (inactive) | > 100 µM (inactive) | > 100 µM (inactive) | > 100 µM (inactive) | – | > 100 µM (inactive)
CN(C)CCNC(=O)c1cccc2ccc(-c3ccc(-c4ccccc4)cc3)nc12 | 2.09 µM (inactive) | 1.88 µM (inactive) | 18.2 µM (inactive) | 1.77 µM (inactive) | 1.76 µM (inactive) | 1.83 µM (inactive) | – | 1.98 | 6.01 µM (inactive) | 1.63 µM (inactive) | 1.72 µM (inactive) | 4.48 µM (inactive) | 2.21 µM (inactive) | 3.44 µM (inactive) | 1.91 µM (inactive) | 18.3 µM (inactive) | 2.72 µM (inactive)
O=C1CCN2C(=O)CCN12 | > 100 µM (inactive) | > 100 µM (inactive) | > 100 µM (inactive) | > 100 µM (inactive) | > 100 µM (inactive) | – | > 100 µM (inactive) | – | > 100 µM (inactive) | – | > 100 µM (inactive) | > 100 µM (inactive) | > 100 µM (inactive) | > 100 µM (inactive) | > 100 µM (inactive) | > 100 µM (inactive) | > 100 µM (inactive)
COC(=O)C1C(=O)O[C@@H](c2ccc(OC)cc2)C1C(=O)OC (stereo not given in full) | > 100 µM (inactive) | – | > 100 µM (inactive) | > 100 µM (inactive) | > 100 µM (inactive) | > 100 µM (inactive) | > 100 µM (inactive) | – | > 100 µM (inactive) | > 100 µM (inactive) | > 100 µM (inactive) | > 100 µM (inactive) | > 100 µM (inactive) | 52.4 µM (inactive) | > 100 µM (inactive) | – | > 100 µM (inactive)
O=C(Nc1c(O)[nH]c(=S)[nH]c1=O)c1ccccc1 | > 100 µM (inactive) | > 100 µM (inactive) | > 100 µM (inactive) | > 100 µM (inactive) | > 100 µM (inactive) | – | > 100 µM (inactive) | > 100 | > 100 µM (inactive) | > 100 µM (inactive) | > 100 µM (inactive) | > 100 µM (inactive) | > 100 µM (inactive) | > 100 µM (inactive) | > 100 µM (inactive) | > 100 µM (inactive) | > 100 µM (inactive)
C/C(CCN(C)C)=N/O | 12.5 µM (inactive) | – | 1.15 µM (inactive) | 0.859 µM (active) | 7.13 µM (inactive) | 1.16 µM (inactive) | 0.313 µM (active) | 11.7 | 1.29 µM (inactive) | – | 0.531 µM (active) | 7.73 µM (inactive) | 26.8 µM (inactive) | – | 0.328 µM (active) | 16.5 µM (inactive) | < 0.01 µM (active)
